Test results taken from patent publication US5684012A, “Dimeric piperidine, tetrahydropyridine and piperazine derivatives” (H. Lundbeck A/S, priority 1992, dated 1997).
Structures can show the parent of a compound that is named as a salt.

system: not given; assay: not given; details: clinical; Snyder and Largent 1989; cited from earlier work

For `C[C@@H]1CN(CCCn2c3ccccc3c3ccccc32)C[C@H](C)N1` [Rimcazole, reference compound], the “effects in the treatment of psychosis” value is listed as “clinically shows effects in the treatment of psychosis”.

target: sigma receptors; assay: Inhibition of ^3H-DTG binding to sigma receptors in rat brain in vitro; details: Table I; 2 nM ^3H-DTG, rat brain without cerebellum, 25° C., 20 min

First: c1ccc2c(c1)COC1(CCN(CCCCN3CCC4(CC3)Cc3ccccc3CO4)CC1)C2 [Compound 1c, 1,4-Bis[1,4-dihydro-spiro[2-benzopyran-3,4'-piperidin]-1'-yl]butane]
Second: c1ccc2c(c1)CCC1(CCN(CCCCN3CCC4(CCc5ccccc5O4)CC3)CC1)O2 [Compound 1r, 1,4-Bis[3,4-dihydro-spiro[1-benzopyran-2,4'-piperidin]-1-yl]butane, difumarate]
The IC50 of the first is 8.1-fold lower: 16 nM for the first, 130 nM for the second. The first is the more potent here.

Going from `O=S(=O)(CCN1CCC2(CC1)OCc1ccccc12)CCN1CCC2(CC1)OCc1ccccc12` [Compound 9a, Bis[2-spiro[isobenzofuran-1(3 H),4'-piperidin]-1'-ylethyl]sulphone] to `c1ccc2c(c1)COC21CCN(CCN2CCC3(CC2)OCc2ccccc23)CC1` [Compound 2c, 1,2-Bis[spiro[isobenzofuran-1(3 H),4'-piperidin]-1'-yl]ethane], the IC50 falls from 1800 nM to 0.23 nM (7800-fold).

Going from `c1ccc2c(c1)CCOC21CCN(CCCCN2CCC3(CC2)OCCc2ccccc23)CC1` [Compound 1t, 1,4-Bis[spiro[1-benzopyran-2,4'-piperidin]-1-yl]butane, 1.25 fumarate] to `c1ccc2c(c1)COC21CCN(CCCCN2CCC3(CC2)OCc2ccccc23)CC1` [Compound 1a, 1,4-Bis[spiro[isobenzofuran-1(3 H),4'-piperidin]-1'-yl]butane], the IC50 rises from 0.38 nM to 0.64 nM (1.7-fold). The first is the more potent here.

`c1ccc2c(c1)OC1(CCN(CCCCN3CCC4(CC3)Oc3ccccc3O4)CC1)O2` [Compound 1i, 1,4-Bis[spiro[1,3-benzodioxol-2,4'-piperidin]-1'-yl]butane] and `C1=CC2(CCN(CCCCN3CCC4(C=Cc5ccccc5O4)CC3)CC2)Oc2ccccc21` [Compound 1p, 1,4-Bis[spiro[1-benzopyran-2,4'-piperidin]-1-yl]butane, difumarate] are within 1.5-fold of each other in IC50: 45 nM for the first, 32 nM for the second.

Compared with `c1ccc2c(c1)COC21CCN(CCCN2CCC3(CC2)OCc2ccccc23)CC1` [Compound 2a, 1,3-Bis[spiro[isobenzofuran-1(3 H),4'-piperidin]-1'-yl]propane difumarate], `c1ccc2c(c1)COC21CCN(CCCCCN2CCC3(CC2)OCc2ccccc23)CC1` [Compound 1h, 1,5-Bis[spiro[isobenzofuran-1(3 H),4'-piperidin]-1-yl]pentane tetrafumarate] is 2.6-fold higher in IC50: 0.76 nM for the first, 2 nM for the second.

Compared with `Fc1ccc(C2CCN(CCCN3CCC(c4ccc(F)cc4)CC3)CC2)cc1` [Compound 2b, 1,3-Bis[4-(4-fluorophenyl)piperidin-1-yl]propane], `Fc1ccc(C2CCN(CCCCN3CCC(c4ccc(F)cc4)CC3)CC2)cc1` [Compound 1b, 1,4-Bis[4-(4-fluorophenyl)piperidin-1-yl]butane] is 2.4-fold higher in IC50: 0.17 nM for the first, 0.41 nM for the second. The first is the more potent here.

`Fc1ccc(C(CCN2CCC3(CC2)OCc2ccccc23)CCN2CCC3(CC2)OCc2ccccc23)cc1` [Compound 7b, 1,5-Bis[spiro[isobenzofuran-1(3 H),4'-piperidin]-1'-yl]-3-(4-fluorophenyl)pentane, difumarate] and `c1ccc2c(c1)COC21CCN(CCSCCN2CCC3(CC2)OCc2ccccc23)CC1` [Compound 8a, Bis[2-spiro[isobenzofuran-1(3 H),4'-piperidin]-1-ylethyl]sulphide, difumarate] are within 1.5-fold of each other in IC50: 0.72 nM for the first, 0.78 nM for the second.

Compared with `Cc1ccc2c(c1)COC21CCN(CCCCN2CCC3(CC2)OCc2cc(C)ccc23)CC1` [Compound 1l, 1,4-Bis[5-methyl-spiro[isobenzofuran-1(3 H),4'-piperidin]-1-yl]butane], `Cc1ccc2c(c1)COC21CCN(CCCCCCN2CCC3(CC2)OCc2cc(C)ccc23)CC1` [Compound 11a, 1,6-Bis[5-methyl-spiro[isebenzofuran-1(3 H),4'-piperidin]-1-yl]hexane] is 2.4-fold lower in IC50: 23 nM for the first, 9.7 nM for the second.

Compared with `FC(F)(F)c1ccc2c(c1)C1(CCN(CCCCN3CCC4(CC3)OCc3ccc(C(F)(F)F)cc34)CC1)OC2` [Compound 1j, 1,4-Bis[6-(trifluoromethyl)-spiro[isobenzofuran-1(3 H),4'-piperidin]-1-yl]butane, dihydrochloride], `Fc1ccc2c(c1)C1(CCN(CCCCN3CCC4(CC3)OCc3ccc(F)cc34)CC1)OC2` [Compound 1g, 1,4-Bis[6-fluoro-spiro[isobenzofuran-1(3 H),4'-piperidin]-1'-yl]butane] is 43-fold lower in IC50: 19 nM for the first, 0.44 nM for the second.

Going from `OC(CN1CCC(c2ccc(F)cc2)CC1)CN1CCC(c2ccc(F)cc2)CC1` [Compound 12a, 1,3-Bis[4-(4-fluorophenyl)piperidin-1-yl]-2-propanol] to `Fc1ccc(C2CCN(CCN3CCC(c4ccc(F)cc4)CC3)CC2)cc1` [Compound 2d, 1,2-Bis[4-(4-fluorophenyl)piperidin-1-yl]ethane], the IC50 falls from 2.4 nM to 0.5 nM (4.8-fold).

First: Fc1cccc2c1C1(CCN(CCCCN3CCC4(CC3)OCc3cccc(F)c34)CC1)OC2 [Compound 1m, 1,4-Bis[7-fluoro-spiro[isobenzofuran-1(3 H),4'-piperidin]-1'-yl]butane]
Second: c1ccc2c(c1)COC21CCN(CCCCCCN2CCC3(CC2)OCc2ccccc23)CC1 [Compound 1f, 1,6-Bis[spiro[isobenzofuran-1(3 H),4'-piperidin]-1'-yl]hexane]
The IC50 of the first is 7.2-fold higher: 5.1 nM for the first, 0.71 nM for the second. The second is the more potent here.

Going from `c1ccc2c(c1)COC21CCN(CCN(CCN2CCC3(CC2)OCc2ccccc23)C2CCCC2)CC1` [Compound 3a, N,N-Bis[2-spiro[isobenzofuran-1(3 H),4'-piperidin]-1'-ylethyl]-N-cyctopentylamine, trihydrochloride] to `CN(CCN1CCC2(CC1)OCc1ccccc12)CCN1CCC2(CC1)OCc1ccccc12` [Compound 3b, N,N-Bis[2-spiro[isobenzofuran-1(3 H),4'-piperidin]-1'-ylethyl]-N-methylamine, trihydrochloride], the IC50 rises from 1.5 nM to 4.9 nM (3.3-fold). The first is the more potent here.

First: O=C(CN1CCN(c2ccc(F)cc2)CC1)CN1CCN(c2ccc(F)cc2)CC1 [Compound 13a, 1,3-Bis[4-(4-fluorophenyl)piperazin-1-yl]-2-propanone]
Second: Fc1ccc(N2CCN(CCCCN3CCN(c4ccc(F)cc4)CC3)CC2)cc1 [Compound 1e, 1,4-Bis[4-(4-fluorophenyl)piperazin-1-yl]butane]
The IC50 of the first is 2800-fold higher: 2500 nM for the first, 0.89 nM for the second. The second is the more potent here.

Compared with `c1ccc2c(c1)COCC21CCN(CCCCN2CCC3(CC2)COCc2ccccc23)CC1` [Compound 1k, 1,4-Bis[1,3-dihydro-spiro[2-benzopyran-4,4'-piperidin]-1'-yl]butane], `c1ccc2c(c1)CCC21CCN(CCCCN2CCC3(CCc4ccccc43)CC2)CC1` [Compound 5a, 1,4-Bis[spiro[indan-1,4'-piperidin]-1'-yl]butane] is 2.8-fold lower in IC50: 8.7 nM for the first, 3.1 nM for the second.

Compared with `C1=CC2(CCN(CCCCN3CCC4(C=Cc5ccccc54)CC3)CC2)c2ccccc21` [Compound 4a, 1,4-Bis[spiro[ind-2-en-1,4'-piperidin]-1'-yl]butane], `c1ccc2c(c1)CSC21CCN(CCCCN2CCC3(CC2)SCc2ccccc23)CC1` [Compound 1s, 1,4-Bis[spiro[isobenzothiophene-1(3 H),4'-piperidin]-1-yl]butane] is 100-fold lower in IC50: 4 nM for the first, 0.04 nM for the second. The second is the more potent here.

Compared with `Fc1ccc(C2CCN(CCN(CCN3CCC(c4ccc(F)cc4)CC3)c3ccccc3)CC2)cc1` [Compound 7a, N,N-Bis[2-[4-(4-fluorophenyl)piperidin-1-yl]ethyl]aniline], `Fc1ccc(C2CCN(CCCCCN3CCC(c4ccc(F)cc4)CC3)CC2)cc1` [Compound 1d, 1,5-Bis[4-(4-fluorophenyl)piperidin-1-yl]pentane, 2.5 fumarate] is 2.6-fold lower in IC50: 3.6 nM for the first, 1.4 nM for the second. The second is the more potent here.

Compared with `c1ccc2c(c1)COC21CC2CCC(C1)N2CCCCN1C2CCC1CC1(C2)OCc2ccccc21` (stereo not drawn) [Compound 1n, 1,4-Bis[spiro[isobenzofuran-1(3 H),3'-8'-azabicyclo[3',2',1']octan]-8'-yl]butane], `c1ccc2c(c1)COC21CCN(CCOCCN2CCC3(CC2)OCc2ccccc23)CC1` [Compound 10a, Bis[2-spiro[isobenzofuran-1(3 H),4'-piperidin]-1'-ylethyl]ether,dihydrochloride] is 40-fold lower in IC50: 99 nM for the first, 2.5 nM for the second.

Compared with `c1ccc2c(c1)CCCC21CCN(CCCCN2CCC3(CCCc4ccccc43)CC2)CC1` [Compound 1q, 1,4-Bis[3,4-dihydro-spiro[naphthalene-1(2 H),4'-piperidin]-1'-yl]butane], `c1ccc2c(c1)OCCC21CCN(CCCCN2CCC3(CCOc4ccccc43)CC2)CC1` [Compound 1u, 1,4-Bis[spiro[1-benzopyran-4,4'-piperidin]-1'-yl]butane] is 24-fold lower in IC50: 4 nM for the first, 0.17 nM for the second. The second is the more potent here.

Compared with `Fc1ccc(C2=CCN(CCCCN3CC=C(c4ccc(F)cc4)CC3)CC2)cc1` [Compound 6a, 1,4-Bis[4-(4-fluorophenyl)-1,2,3,6-tetrahydropyridin-1-yl]butane], `Fc1ccc(C2=CC3CCC(C2)N3CCCCN2C3C=C(c4ccc(F)cc4)CC2CC3)cc1` [Compound 1o, 1,4-Bis[3-(4-fluorophenyl)-8-azabicyclo[3,2,1]oct-2-en-8-yl]butane] is 240-fold higher in IC50: 0.31 nM for the first, 74 nM for the second. The first is the more potent here.
